From article PMC9025901, “New Genetic Bomb Trigger: Design, Synthesis, Molecular Dynamics Simulation, and Biological Evaluation of Novel BIBR1532-Related Analogs Targeting Telomerase against Non-Small Cell Lung Cancer” (Pharmaceuticals, 2022)

Key:
telomerase = biological target: T1, telomerase (Homo sapiens, UniProt O14746); assay: TRAP / RTQ-TRAP telomerase activity assay in A549 cell-free lysates; type: biochemical; details: telomerase inhibition, mean ± SEM;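 also: telomerase activity measured in cell-free extracts of human A549 epithelial lung carcinoma cells, tested across a range of inhibitor concentrations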
T1 construct: A549 cells (human epithelial cell lung carcinoma, ATCC, Manassas, VA) were lysed in; host or cells: A549 cell lysate (CHAPS extract, 5 µg total protein)
Protocol: In cell-free investigations, human A549 (epithelial cell lung carcinoma) lysates were utilized to evaluate telomerase with various inhibitor concentrations. […] The Telomeric Repeat Amplification Protocol (TRAP) [61] was used to evaluate the activity of telomerase, with some changes that we have previously described [62, 63]. A549 cells (human epithelial cell lung carcinoma, ATCC, Manassas, VA) were lysed in (10 mM) Tris-HCl, pH 7.5, (1 mM) EGTA, (1 mM) MgCl2, (5 mM) 2-mercaptoethanol, (0.1 mM) PMSF, (0.5%) CHAPS, and (10%) glycerol (Sigma-Aldrich, St. Louis, MO, USA) and centrifugation. The supernatants were kept at -80 °C. The BCA-1 Protein Assay Kit was used to assess the protein concentration in cell extracts (Sigma-Aldrich, St. Louis, MO, USA). […] To inactivate telomerase, the cells were elongated for 30 min at 37 °C and 10 min at 96 °C. Copy CX-primer was added to the elongation mixture along with 0.1 μL ([NT]) and 2.5 units Taq-polymerase, followed by the following PCR: 94 °C for 5 min; 30 cycles of 94 °C for 30 s, 50 °C for 30 s, and 72 °C for 40 s, and 72 °C for 5 min. […] The gels were stained with the SYBR Green I (Invitrogen, Grand Island, NY, USA), then photographed under the UV light in ChemiDocTM XRS imaging system and analyzed with GelAnalyzer 2010. Analysis was carried out using SPSS 25 software, a 2-way ANOVA, and a student's t-test (IBM SPSS Statistics, Armonk, NY, USA). The mean ± SEM is used to express the findings. The significance level was set at p ≤ 0.05. […] According to Sebaugh J.L., et al.'s guidelines, the values were assessed using the Prism 6 software (GraphPad, San Diego, CA, USA) [65].

[1] = set-up: method as in PMID 18256617, PMID 32733068, PMID 32125789; details: cited from earlier work
[2] = biological target: T2, telomerase inside living cancer cells A549 (Homo sapiens, UniProt O14746); assay: Living-cell TRAP assay, A549; type: cell-based; details: percent of control cells, 10 µM, 48 h
T2 construct: host or cells: A549
Protocol: (§1) The Telomeric Repeat Amplification Protocol (TRAP) [61] was used to evaluate the activity of telomerase, with some changes that we have previously described [62, 63]. A549 cells (human epithelial cell lung carcinoma, ATCC, Manassas, VA) were lysed in (10 mM) Tris-HCl, pH 7.5, (1 mM) EGTA, (1 mM) MgCl2, (5 mM) 2-mercaptoethanol, (0.1 mM) PMSF, (0.5%) CHAPS, and (10%) glycerol (Sigma-Aldrich, St. Louis, MO, USA) and centrifugation. The supernatants were kept at -80 °C. The BCA-1 Protein Assay Kit was used to assess the protein concentration in cell extracts (Sigma-Aldrich, St. Louis, MO, USA). […] To inactivate telomerase, the cells were elongated for 30 min at 37 °C and 10 min at 96 °C. Copy CX-primer was added to the elongation mixture along with 0.1 μL ([NT]) and 2.5 units Taq-polymerase, followed by the following PCR: 94 °C for 5 min; 30 cycles of 94 °C for 30 s, 50 °C for 30 s, and 72 °C for 40 s, and 72 °C for 5 min. TBE buffer and (12%) nondenaturing PAAG electrophoresis were used to visualize the PCR product. 10 μL of each sample was placed in each well of gel comb. The gels were stained with the SYBR Green I (Invitrogen, Grand Island, NY, USA), then photographed under the UV light in ChemiDocTM XRS imaging system and analyzed with GelAnalyzer 2010.

[3] = biological target: T3, telomerase inside living cancer cells NCI-H23 (Homo sapiens, UniProt O14746); assay: Living-cell TRAP assay, NCI-H23; type: cell-based; details: percent of control cells, 10 µM, 48 h
T3 construct: host or cells: NCI-H23
Protocol: as §1

[4] = biological target: T4, telomerase inside living cancer cells HCC44 (Homo sapiens, UniProt O14746); assay: Living-cell TRAP assay, HCC44; type: cell-based; details: percent of control cells, 10 µM, 48 h
T4 construct: host or cells: HCC44
Protocol: as §1

[5] = system: advanced non-small cell lung cancer; set-up: method as in PMID 32733068, PMID 25467017; details: phase II clinical trials, patients with advanced non-small cell lung cancer; cited from earlier work

T1 sequence (O14746 whole entry): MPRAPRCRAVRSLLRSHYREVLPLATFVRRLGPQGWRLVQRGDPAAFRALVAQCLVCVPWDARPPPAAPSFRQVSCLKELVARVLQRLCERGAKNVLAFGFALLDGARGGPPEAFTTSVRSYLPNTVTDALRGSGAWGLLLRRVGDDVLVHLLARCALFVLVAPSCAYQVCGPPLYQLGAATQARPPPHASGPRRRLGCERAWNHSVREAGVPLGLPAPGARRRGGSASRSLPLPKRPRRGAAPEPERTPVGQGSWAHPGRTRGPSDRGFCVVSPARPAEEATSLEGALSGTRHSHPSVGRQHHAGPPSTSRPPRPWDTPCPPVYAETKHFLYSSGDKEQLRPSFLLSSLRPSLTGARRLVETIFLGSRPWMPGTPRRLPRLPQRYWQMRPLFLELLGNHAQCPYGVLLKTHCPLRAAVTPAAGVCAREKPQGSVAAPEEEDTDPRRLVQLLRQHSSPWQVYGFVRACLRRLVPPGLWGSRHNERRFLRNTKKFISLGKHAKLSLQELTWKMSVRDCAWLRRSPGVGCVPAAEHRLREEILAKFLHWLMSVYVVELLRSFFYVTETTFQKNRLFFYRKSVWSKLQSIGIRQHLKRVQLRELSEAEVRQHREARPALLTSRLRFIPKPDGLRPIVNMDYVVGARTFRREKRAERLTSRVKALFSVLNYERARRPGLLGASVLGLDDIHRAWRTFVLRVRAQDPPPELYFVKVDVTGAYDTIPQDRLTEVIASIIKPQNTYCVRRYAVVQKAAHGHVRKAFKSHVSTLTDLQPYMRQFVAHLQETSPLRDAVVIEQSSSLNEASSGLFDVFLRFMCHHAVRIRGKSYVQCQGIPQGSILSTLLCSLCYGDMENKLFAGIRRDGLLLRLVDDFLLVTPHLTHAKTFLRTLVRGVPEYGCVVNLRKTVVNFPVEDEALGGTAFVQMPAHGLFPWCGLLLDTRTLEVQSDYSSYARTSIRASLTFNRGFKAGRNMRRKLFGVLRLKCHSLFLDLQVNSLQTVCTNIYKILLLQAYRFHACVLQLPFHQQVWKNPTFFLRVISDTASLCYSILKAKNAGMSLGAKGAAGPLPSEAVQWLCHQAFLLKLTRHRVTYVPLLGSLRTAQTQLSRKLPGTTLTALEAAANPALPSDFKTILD
T1 sequence (O60832 whole entry partner): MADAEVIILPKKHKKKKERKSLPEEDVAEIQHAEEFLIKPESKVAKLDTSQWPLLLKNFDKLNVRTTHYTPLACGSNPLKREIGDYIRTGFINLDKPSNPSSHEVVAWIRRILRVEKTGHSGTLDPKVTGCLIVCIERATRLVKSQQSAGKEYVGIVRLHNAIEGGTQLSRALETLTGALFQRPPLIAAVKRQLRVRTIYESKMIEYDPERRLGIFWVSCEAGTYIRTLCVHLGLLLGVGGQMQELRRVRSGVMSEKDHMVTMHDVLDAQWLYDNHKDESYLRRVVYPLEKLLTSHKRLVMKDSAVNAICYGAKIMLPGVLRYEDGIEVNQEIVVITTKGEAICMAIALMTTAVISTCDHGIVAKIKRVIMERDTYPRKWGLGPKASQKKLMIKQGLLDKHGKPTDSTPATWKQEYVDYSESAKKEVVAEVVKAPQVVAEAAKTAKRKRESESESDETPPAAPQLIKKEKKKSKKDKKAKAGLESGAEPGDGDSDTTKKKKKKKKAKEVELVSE
T1 sequence (Q9NX24 whole entry partner): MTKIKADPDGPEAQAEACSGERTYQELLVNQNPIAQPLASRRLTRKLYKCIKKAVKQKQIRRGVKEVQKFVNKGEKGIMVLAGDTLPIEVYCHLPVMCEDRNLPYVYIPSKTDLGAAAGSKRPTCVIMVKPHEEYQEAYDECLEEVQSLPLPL
T1 sequence (Q9NPE3 whole entry partner): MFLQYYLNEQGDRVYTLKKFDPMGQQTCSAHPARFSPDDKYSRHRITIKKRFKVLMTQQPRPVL
T1 sequence (Q9NY12 whole entry partner): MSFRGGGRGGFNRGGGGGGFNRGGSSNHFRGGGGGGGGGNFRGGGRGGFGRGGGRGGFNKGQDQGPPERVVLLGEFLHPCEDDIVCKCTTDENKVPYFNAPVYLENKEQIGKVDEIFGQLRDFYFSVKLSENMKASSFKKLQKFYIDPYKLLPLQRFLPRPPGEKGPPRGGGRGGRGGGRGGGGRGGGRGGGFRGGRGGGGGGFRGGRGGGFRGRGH
T1 sequence (Q9BUR4 whole entry partner): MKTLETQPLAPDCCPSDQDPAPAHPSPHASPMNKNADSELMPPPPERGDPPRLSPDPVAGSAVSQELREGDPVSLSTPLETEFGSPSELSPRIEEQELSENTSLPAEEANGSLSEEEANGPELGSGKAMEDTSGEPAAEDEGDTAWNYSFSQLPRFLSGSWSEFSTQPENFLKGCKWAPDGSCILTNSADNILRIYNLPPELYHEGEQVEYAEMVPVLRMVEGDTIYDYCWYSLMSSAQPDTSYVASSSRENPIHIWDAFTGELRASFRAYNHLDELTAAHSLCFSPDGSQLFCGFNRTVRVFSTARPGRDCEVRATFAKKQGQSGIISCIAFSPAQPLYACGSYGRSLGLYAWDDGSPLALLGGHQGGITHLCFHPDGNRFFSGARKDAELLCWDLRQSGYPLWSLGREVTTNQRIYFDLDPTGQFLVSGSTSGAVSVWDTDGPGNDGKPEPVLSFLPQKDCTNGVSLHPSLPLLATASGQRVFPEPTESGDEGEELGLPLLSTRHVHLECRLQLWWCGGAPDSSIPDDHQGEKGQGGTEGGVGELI
T4 sequence (O14746 whole entry): as the sequence (O14746 whole entry) above
T4 sequence (O60832 whole entry partner): as the sequence (O60832 whole entry partner) above
T4 sequence (Q9NX24 whole entry partner): as the sequence (Q9NX24 whole entry partner) above
T4 sequence (Q9NPE3 whole entry partner): as the sequence (Q9NPE3 whole entry partner) above
T4 sequence (Q9NY12 whole entry partner): as the sequence (Q9NY12 whole entry partner) above
T4 sequence (Q9BUR4 whole entry partner): as the sequence (Q9BUR4 whole entry partner) above
T2 sequence (O14746 whole entry): as the sequence (O14746 whole entry) above
T2 sequence (O60832 whole entry partner): as the sequence (O60832 whole entry partner) above
T2 sequence (Q9NX24 whole entry partner): as the sequence (Q9NX24 whole entry partner) above
T2 sequence (Q9NPE3 whole entry partner): as the sequence (Q9NPE3 whole entry partner) above
T2 sequence (Q9NY12 whole entry partner): as the sequence (Q9NY12 whole entry partner) above
T2 sequence (Q9BUR4 whole entry partner): as the sequence (Q9BUR4 whole entry partner) above
T3 sequence (O14746 whole entry): as the sequence (O14746 whole entry) above
T3 sequence (O60832 whole entry partner): as the sequence (O60832 whole entry partner) above
T3 sequence (Q9NX24 whole entry partner): as the sequence (Q9NX24 whole entry partner) above
T3 sequence (Q9NPE3 whole entry partner): as the sequence (Q9NPE3 whole entry partner) above
T3 sequence (Q9NY12 whole entry partner): as the sequence (Q9NY12 whole entry partner) above
T3 sequence (Q9BUR4 whole entry partner): as the sequence (Q9BUR4 whole entry partner) above

Molecule	IC90 (telomerase) [µM]	cellular uptake [1]	pharmacokinetics [1]	% Telomerase Activity in Cancer Cells [2] [%]	% Telomerase Activity in Cancer Cells [3] [%]	IC50 (telomerase) [µM]	melting point [°C]	% Telomerase Activity in Cancer Cells [4] [%]	overall survival [5]
C/C(=C\C(=O)Nc1ccccc1C(=O)O)c1ccc2ccccc2c1 [BIBR1532]	5.6 ± 0.02	low cellular uptake	poor pharmacokinetics	–	–	–	–	–	–
N#C/C(=C\c1c[nH]c2ccccc12)C(=O)Nc1sc2c(c1C#N)CCCC2 [Compound 39b, (2E)-2-Cyano-N-(3-cyano-4,5,6,7-tetrahydro-1-benzothiophen-2-yl)-3-(1H-indol-3-yl)prop-2-enamide]	7.1 ± 0.3	–	–	41.5 ± 6.9	50.3 ± 5.1	2 ± 0.03	284 to 286	75.6 ± 7.9	–
Imetelstat	–	–	–	–	–	–	–	–	no improvement in overall survival
